Laboratory results published in US6638957B1, “Use of compounds with a nitrogen-oxygen heterocycle” (Jomaa Pharmaka GmbH, priority 1999, dated 2003).
≈ marks a conversion by molar mass, not a printed value.

Key:
[1] = test system: Alopecurus myosuroides; assay: herbicidal activity, Erde Nachauflauf; type: in vivo
Description: (§1) The determination of herbicidal activity is performed according to standard procedure. Again the compounds listed on page 9 are tested.

[2] = test system: Amaranthus retroflexus; assay: herbicidal activity, Erde Nachauflauf; type: in vivo
Description: as §1

[3] = test system: Zea mays; assay: herbicidal activity, Erde Nachauflauf; type: in vivo
Description: as §1

[4] = test system: Setaria viridis; assay: herbicidal activity, Erde Nachauflauf; type: in vivo
Description: as §1

[5] = test system: Galium aperine; assay: herbicidal activity, Erde Nachauflauf; type: in vivo
Description: as §1

[6] = test system: Sinapis arvensis; assay: herbicidal activity, Erde Nachauflauf; type: in vivo; settings: Mutarda arvensis
Description: as §1

[7] = test system: Cyperus esculentus; assay: herbicidal activity, Erde Nachauflauf; type: in vivo
Description: as §1

[8] = test system: Xanthium strumarium; assay: herbicidal activity, Erde Nachauflauf; type: in vivo
Description: as §1

[9] = test system: Abutilon theophrasti; assay: herbicidal activity, Erde Nachauflauf; type: in vivo
Description: as §1

[10] = test system: Beta vulgaris; assay: herbicidal activity, Erde Nachauflauf; type: in vivo
Description: as §1

[11] = test system: Avena fatua; assay: herbicidal activity, Erde Nachauflauf; type: in vivo
Description: as §1

[12] = test system: Pseudomonas aeruginosa; assay: antibacterial activity, minimum inhibition concentration in liquid culture; type: cell-based; settings: LB medium, overnight at 37° C., turbidity, read-out: MIC(nM) of bacteria culture (Pseudomonas aeruginosa)
Description: A dilution series comprising the concentrations 500, 100, 50, 10 and 0 μmol 1^−1 of the individual compounds in LB medium is introduced into 5 culture microtubes in a volume of 0,5 ml. The tubes were inoculated with 10 μl of an overnight culture of E. coli K12 and shaken overnight at 37° C. The growth of the bacteria was assessed on the basis of the turbidity of the medium. The minimum concentration causing inhibition of bacterial growth was determined (minimum inhibition concentration MIC)
The antibacterial activity of P. aeruginosa was determined in the same manner.

[13] = test system: Alopecurus myosuroides; assay: herbicidal activity, Erde Vorauflauf; type: in vivo
Description: as §1

[14] = test system: Amaranthus retroflexus; assay: herbicidal activity, Erde Vorauflauf; type: in vivo
Description: as §1

[15] = test system: Zea mays; assay: herbicidal activity, Erde Vorauflauf; type: in vivo
Description: as §1

[16] = test system: Setaria viridis; assay: herbicidal activity, Erde Vorauflauf; type: in vivo
Description: as §1

[17] = test system: Galium aperine; assay: herbicidal activity, Erde Vorauflauf; type: in vivo
Description: as §1

[18] = test system: Sinapis arvensis; assay: herbicidal activity, Erde Vorauflauf; type: in vivo; settings: Mutarda arvensis
Description: as §1

[19] = test system: Cyperus esculentus; assay: herbicidal activity, Erde Vorauflauf; type: in vivo
Description: as §1

[20] = test system: Xanthium strumarium; assay: herbicidal activity, Erde Vorauflauf; type: in vivo
Description: as §1

[21] = test system: Abutilon theophrasti; assay: herbicidal activity, Erde Vorauflauf; type: in vivo
Description: as §1

[22] = test system: Beta vulgaris; assay: herbicidal activity, Erde Vorauflauf; type: in vivo
Description: as §1

[23] = test system: Avena fatua; assay: herbicidal activity, Erde Vorauflauf; type: in vivo
Description: as §1

[24] = test system: Reis; assay: herbicidal activity, Hydro Vorauflauf; type: in vivo
Description: as §1

[25] = test system: Echinochloa; assay: herbicidal activity, Hydro Vorauflauf; type: in vivo
Description: as §1

[26] = test system: Lepidium; assay: herbicidal activity, Hydro Vorauflauf; type: in vivo
Description: as §1

[27] = test system: Solanum; assay: herbicidal activity, Hydro Vorauflauf; type: in vivo
Description: as §1

[28] = target: T1, DOXP reductoisomerase of Escherichia coli (UniProt P56139); assay: inhibition of recombinant DOXP reductoisomerase (NADPH oxidation); type: biochemical; settings: 1 mM DOXP, 0,3 mM NADPH, pH 7,5; read-out: IC50(nM) of DOXP reductoisomerase from Helicobacter pilori
T1 sequence (P56139 1-368): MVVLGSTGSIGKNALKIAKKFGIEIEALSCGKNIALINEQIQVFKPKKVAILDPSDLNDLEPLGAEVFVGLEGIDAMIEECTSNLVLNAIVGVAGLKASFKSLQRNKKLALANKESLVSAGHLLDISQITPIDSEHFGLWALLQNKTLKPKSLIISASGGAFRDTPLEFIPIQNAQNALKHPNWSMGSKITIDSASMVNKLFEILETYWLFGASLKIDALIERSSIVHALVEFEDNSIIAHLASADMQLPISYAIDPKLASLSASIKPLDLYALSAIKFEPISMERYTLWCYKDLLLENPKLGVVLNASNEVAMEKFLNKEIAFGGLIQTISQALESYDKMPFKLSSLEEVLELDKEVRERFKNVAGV

[29] = test system: Plasmodium falciparum; assay: antimalaria activity on in vitro cultures, [3H]-hypoxanthine incorporation; type: cell-based; settings: 72 h, inhibition of [3H]-hypoxanthine incorporation, 48 + 24 hours, read-out: IC50(nM) of malaria culture (Plasmodium falciparum)
Description: The antimalaria activity of the compounds listed on page 9 was determined on in vitro cultures of the malaria pathogen Plasmodium falciparum. The depressions of a 96-well microtitre plate were charged with in each case 200 μl of an asynchroneous Plasmodium falciparum culture at a parasitaemia of 0,4% and haematokrit of 2%. A serial dilution series of the compounds in triple steps between concentrations of 100 to 0,14 μmol 1^−1 was then prepared. The plates were incubated at 37° C., 3% CO2 and 5% O2 over a period of 48 hours. 30 μl medium supplemented with 27 μCi ml^−1 [^3H]-hypoxanthine were then added to each well. After incubation for 24 hours the parasites were harvested by filtration on a glass fibre filter and the radioactivity which had been incorporated was measured. The inhibition of the growth of parasites was measured as the percentage inhibition of the incorporation of tritium. Inhibition of the growth of the parasites has been determined as percentage inhibition of incorporation of tritium based on a comparison without the substance. The half-maximum inhibitory concentration (IC50) of the substance was determined by extrapolation of the values.

CN(C)CCCN1OCCCC1=O [Compound 6]
pest or weed control at 2000 g/ha ([1]; 2000 Gramm/Hektar): 40%
pest or weed control at 2000 g/ha ([2]; 2000 Gramm/Hektar): 70%
plant injury at 2000 g/ha ([3]; 2000 Gramm/Hektar): 70%
pest or weed control at 2000 g/ha ([4]; 2000 Gramm/Hektar): 70%
pest or weed control at 2000 g/ha ([5]; 2000 Gramm/Hektar): 80%
pest or weed control at 2000 g/ha ([6]; 2000 Gramm/Hektar): 60%
pest or weed control at 2000 g/ha ([7]; 2000 Gramm/Hektar): 0%
pest or weed control at 2000 g/ha ([8]; 2000 Gramm/Hektar): 60%
pest or weed control at 2000 g/ha ([9]; 2000 Gramm/Hektar): 60%
plant injury at 2000 g/ha ([10]; 2000 Gramm/Hektar): 40%
pest or weed control at 2000 g/ha ([11]; 2000 Gramm/Hektar): 60%
MIC [12]: 2500 nM (≈ 0.466 µg/mL)
pest or weed control at 2000 g/ha ([13]; 2000 Gramm/Hektar): 70%
pest or weed control at 2000 g/ha ([14]; 2000 Gramm/Hektar): 0%
plant injury at 2000 g/ha ([15]; 2000 Gramm/Hektar): 0%
pest or weed control at 2000 g/ha ([16]; 2000 Gramm/Hektar): 0%
pest or weed control at 2000 g/ha ([17]; 2000 Gramm/Hektar): 0%
pest or weed control at 2000 g/ha ([18]; 2000 Gramm/Hektar): 30%
pest or weed control at 2000 g/ha ([19]; 2000 Gramm/Hektar): 0%
pest or weed control at 2000 g/ha ([20]; 2000 Gramm/Hektar): 0%
pest or weed control at 2000 g/ha ([21]; 2000 Gramm/Hektar): 0%
plant injury at 2000 g/ha ([22]; 2000 Gramm/Hektar): 60%
pest or weed control at 2000 g/ha ([23]; 2000 Gramm/Hektar): 0%
pest or weed control at 4000 g/ha ([24]; 4000 Gramm/Hektar): 40%
pest or weed control at 4000 g/ha ([25]; 4000 Gramm/Hektar): 50%
pest or weed control at 4000 g/ha ([26]; 4000 Gramm/Hektar): 30%
pest or weed control at 4000 g/ha ([27]; 4000 Gramm/Hektar): 0%
IC50 [28]: 130 nM
IC50 [29]: 1600 nM

CN(C)CC(=O)CN1OCCC(C)(C)C1=O [Compound 8]
pest or weed control at 1000 g/ha ([1]; 1000 Gramm/Hektar): 70%
pest or weed control at 1000 g/ha ([2]; 1000 Gramm/Hektar): 50%
plant injury at 1000 g/ha ([3]; 1000 Gramm/Hektar): 70%
pest or weed control at 1000 g/ha ([4]; 1000 Gramm/Hektar): 90%
pest or weed control at 1000 g/ha ([5]; 1000 Gramm/Hektar): 70%
pest or weed control at 1000 g/ha ([6]; 1000 Gramm/Hektar): 90%
pest or weed control at 1000 g/ha ([7]; 1000 Gramm/Hektar): 0%
pest or weed control at 1000 g/ha ([8]; 1000 Gramm/Hektar): 90%
pest or weed control at 1000 g/ha ([9]; 1000 Gramm/Hektar): 50%
plant injury at 1000 g/ha ([10]; 1000 Gramm/Hektar): 40%
pest or weed control at 1000 g/ha ([11]; 1000 Gramm/Hektar): 80%
MIC [12]: 7300 nM (≈ 1.67 µg/mL)
pest or weed control at 1000 g/ha ([13]; 1000 Gramm/Hektar): 30%
pest or weed control at 1000 g/ha ([14]; 1000 Gramm/Hektar): 20%
plant injury at 1000 g/ha ([15]; 1000 Gramm/Hektar): 30%
pest or weed control at 1000 g/ha ([16]; 1000 Gramm/Hektar): 0%
pest or weed control at 1000 g/ha ([17]; 1000 Gramm/Hektar): 0%
pest or weed control at 1000 g/ha ([18]; 1000 Gramm/Hektar): 30%
pest or weed control at 1000 g/ha ([19]; 1000 Gramm/Hektar): 0%
pest or weed control at 1000 g/ha ([20]; 1000 Gramm/Hektar): 0%
pest or weed control at 1000 g/ha ([21]; 1000 Gramm/Hektar): 0%
plant injury at 1000 g/ha ([22]; 1000 Gramm/Hektar): 30%
pest or weed control at 1000 g/ha ([23]; 1000 Gramm/Hektar): 30%
pest or weed control at 2000 g/ha ([24]; 2000 Gramm/Hektar): 0%
pest or weed control at 2000 g/ha ([25]; 2000 Gramm/Hektar): 40%
pest or weed control at 2000 g/ha ([26]; 2000 Gramm/Hektar): 30%
pest or weed control at 2000 g/ha ([27]; 2000 Gramm/Hektar): 30%
IC50 [28]: 24 nM
IC50 [29]: 700 nM
